Assay results reported in US9517994B2, “Antibacterial agents: phloroglucinol derivatives” (Rutgers, the State University of New Jersey, priority 2012, dated 2016).
≈ marks a conversion by molar mass, not a printed value.

Columns and labels:
[1] = molecular target: E. coli RNA polymerase σ70 holoenzyme (Escherichia coli, UniProt P0A8T7+P0A8V2); test: Fluorescence-detected assay of inhibition of Escherichia coli RNA polymerase; type: biochemical; conditions: RiboGreen fluorescence, read-out: IC50 Ec RNAP
E. coli RNA polymerase σ70 holoenzyme, sequence (P0A8V2 whole entry, the tested form may be a part): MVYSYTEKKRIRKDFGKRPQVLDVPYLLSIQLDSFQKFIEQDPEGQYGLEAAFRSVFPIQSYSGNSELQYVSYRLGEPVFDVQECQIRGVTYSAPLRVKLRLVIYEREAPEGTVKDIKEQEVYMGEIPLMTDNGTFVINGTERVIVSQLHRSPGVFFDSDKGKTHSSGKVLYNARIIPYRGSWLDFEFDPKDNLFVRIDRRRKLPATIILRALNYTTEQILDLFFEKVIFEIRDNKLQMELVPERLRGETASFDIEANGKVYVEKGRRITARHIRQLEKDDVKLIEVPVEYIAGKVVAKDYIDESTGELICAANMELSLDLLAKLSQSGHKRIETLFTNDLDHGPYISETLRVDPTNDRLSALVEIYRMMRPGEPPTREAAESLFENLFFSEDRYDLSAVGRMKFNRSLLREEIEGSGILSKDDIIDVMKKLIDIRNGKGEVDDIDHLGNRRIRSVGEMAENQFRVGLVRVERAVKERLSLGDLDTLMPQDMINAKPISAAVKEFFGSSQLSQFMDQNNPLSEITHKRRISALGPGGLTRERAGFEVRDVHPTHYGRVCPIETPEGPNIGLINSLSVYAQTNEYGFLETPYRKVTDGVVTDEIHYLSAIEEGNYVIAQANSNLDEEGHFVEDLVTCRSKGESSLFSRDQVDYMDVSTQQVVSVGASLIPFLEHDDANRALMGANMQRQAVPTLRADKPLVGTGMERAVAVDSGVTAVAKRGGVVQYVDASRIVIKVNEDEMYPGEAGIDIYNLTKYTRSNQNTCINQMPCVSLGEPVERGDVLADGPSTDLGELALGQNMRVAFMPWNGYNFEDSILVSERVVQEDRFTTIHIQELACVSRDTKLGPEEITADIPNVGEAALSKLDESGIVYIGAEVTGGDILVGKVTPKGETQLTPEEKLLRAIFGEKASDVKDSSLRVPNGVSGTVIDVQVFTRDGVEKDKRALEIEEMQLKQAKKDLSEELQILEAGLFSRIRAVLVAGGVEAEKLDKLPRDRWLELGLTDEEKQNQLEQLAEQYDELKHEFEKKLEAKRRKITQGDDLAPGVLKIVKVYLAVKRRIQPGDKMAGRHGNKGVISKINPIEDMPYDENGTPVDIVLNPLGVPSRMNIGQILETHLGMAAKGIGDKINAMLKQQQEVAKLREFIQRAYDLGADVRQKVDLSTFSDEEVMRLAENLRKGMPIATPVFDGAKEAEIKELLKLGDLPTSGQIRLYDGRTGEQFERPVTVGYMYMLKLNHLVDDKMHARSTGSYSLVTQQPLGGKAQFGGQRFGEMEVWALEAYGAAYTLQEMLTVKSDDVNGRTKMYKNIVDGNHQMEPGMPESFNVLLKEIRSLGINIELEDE
E. coli RNA polymerase σ70 holoenzyme, sequence (P0A8T7 whole entry, the tested form may be a part): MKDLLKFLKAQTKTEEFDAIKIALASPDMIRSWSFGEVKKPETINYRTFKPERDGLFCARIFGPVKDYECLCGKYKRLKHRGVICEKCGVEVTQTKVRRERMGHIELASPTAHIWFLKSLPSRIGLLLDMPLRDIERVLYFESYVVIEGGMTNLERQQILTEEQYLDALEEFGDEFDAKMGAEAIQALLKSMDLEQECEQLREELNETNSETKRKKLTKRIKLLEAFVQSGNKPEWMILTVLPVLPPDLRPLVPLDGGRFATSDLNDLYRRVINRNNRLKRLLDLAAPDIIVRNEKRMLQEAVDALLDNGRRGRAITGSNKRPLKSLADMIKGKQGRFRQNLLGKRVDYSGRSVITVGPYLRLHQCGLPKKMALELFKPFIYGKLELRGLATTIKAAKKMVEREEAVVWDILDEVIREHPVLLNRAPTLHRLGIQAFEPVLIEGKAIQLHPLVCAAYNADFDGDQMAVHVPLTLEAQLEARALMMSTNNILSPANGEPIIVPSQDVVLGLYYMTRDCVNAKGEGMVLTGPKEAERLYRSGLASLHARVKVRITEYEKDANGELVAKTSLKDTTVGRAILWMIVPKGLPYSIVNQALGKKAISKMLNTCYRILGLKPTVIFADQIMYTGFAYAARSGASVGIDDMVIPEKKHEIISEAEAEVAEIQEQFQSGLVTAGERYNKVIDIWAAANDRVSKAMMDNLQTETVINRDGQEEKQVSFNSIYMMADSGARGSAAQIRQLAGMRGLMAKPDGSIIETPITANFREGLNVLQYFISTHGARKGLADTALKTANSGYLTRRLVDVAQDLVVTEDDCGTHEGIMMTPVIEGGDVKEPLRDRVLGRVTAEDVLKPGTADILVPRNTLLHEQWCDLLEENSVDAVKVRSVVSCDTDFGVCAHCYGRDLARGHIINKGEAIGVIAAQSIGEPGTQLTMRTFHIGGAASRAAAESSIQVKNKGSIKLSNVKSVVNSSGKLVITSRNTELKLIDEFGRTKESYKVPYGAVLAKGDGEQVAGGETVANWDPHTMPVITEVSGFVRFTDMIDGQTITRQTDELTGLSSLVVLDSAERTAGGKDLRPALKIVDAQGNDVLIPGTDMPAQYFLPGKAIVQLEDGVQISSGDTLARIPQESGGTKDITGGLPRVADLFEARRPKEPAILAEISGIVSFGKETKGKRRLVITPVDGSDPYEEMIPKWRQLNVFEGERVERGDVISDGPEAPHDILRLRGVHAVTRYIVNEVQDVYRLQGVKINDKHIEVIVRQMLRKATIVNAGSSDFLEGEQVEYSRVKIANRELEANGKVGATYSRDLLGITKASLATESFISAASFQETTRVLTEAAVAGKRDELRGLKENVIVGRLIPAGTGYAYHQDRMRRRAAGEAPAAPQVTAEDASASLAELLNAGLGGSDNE
E. coli RNA polymerase σ70 holoenzyme, sequence (P0A7Z4 whole entry partner, the tested form may be a part): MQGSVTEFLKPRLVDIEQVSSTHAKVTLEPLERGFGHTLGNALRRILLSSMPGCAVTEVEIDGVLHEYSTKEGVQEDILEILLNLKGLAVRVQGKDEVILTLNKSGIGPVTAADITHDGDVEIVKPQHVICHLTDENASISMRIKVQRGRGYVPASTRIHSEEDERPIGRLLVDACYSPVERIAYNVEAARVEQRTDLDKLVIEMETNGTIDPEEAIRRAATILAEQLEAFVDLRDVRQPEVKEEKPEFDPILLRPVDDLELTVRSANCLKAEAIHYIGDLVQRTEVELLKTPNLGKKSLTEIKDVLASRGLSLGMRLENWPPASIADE
E. coli RNA polymerase σ70 holoenzyme, sequence (P0A800 whole entry partner, the tested form may be a part): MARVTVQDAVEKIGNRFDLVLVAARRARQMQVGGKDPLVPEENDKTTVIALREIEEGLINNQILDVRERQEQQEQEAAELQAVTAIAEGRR
E. coli RNA polymerase σ70 holoenzyme, sequence (P00579 whole entry partner, the tested form may be a part): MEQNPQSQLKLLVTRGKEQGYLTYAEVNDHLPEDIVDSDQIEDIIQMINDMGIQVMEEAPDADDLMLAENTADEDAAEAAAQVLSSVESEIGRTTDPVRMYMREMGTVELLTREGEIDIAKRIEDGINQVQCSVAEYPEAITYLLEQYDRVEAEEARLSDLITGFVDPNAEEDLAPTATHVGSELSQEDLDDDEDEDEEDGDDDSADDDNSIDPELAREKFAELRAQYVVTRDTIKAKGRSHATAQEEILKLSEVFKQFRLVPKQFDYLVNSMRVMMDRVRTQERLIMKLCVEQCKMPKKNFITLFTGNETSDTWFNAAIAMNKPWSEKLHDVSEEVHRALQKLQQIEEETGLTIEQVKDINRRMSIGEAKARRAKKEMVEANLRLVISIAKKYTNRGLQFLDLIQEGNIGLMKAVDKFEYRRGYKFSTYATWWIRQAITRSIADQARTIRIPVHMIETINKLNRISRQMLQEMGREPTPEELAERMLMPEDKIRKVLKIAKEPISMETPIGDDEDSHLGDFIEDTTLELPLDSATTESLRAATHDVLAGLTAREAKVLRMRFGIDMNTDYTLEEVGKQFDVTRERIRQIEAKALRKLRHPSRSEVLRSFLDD
Method: (§1) Fluorescence-detected RNA polymerase assays with E. coli RNA polymerase were performed by a modification of the procedure of Kuhlman et al., 2004 (Kuhlman, P., Duff, H. & Galant, A. (2004) Anal. Biochem. 324, 183-190). Reaction mixtures contained (20 μl): 0-100 nM test compound, 75 nM E. coli RNA polymerase σ^70 holoenzyme, 20 nM 384 by DNA fragment containing the bacteriophage T4 N25 promoter, 100 μM ATP, 100 μM GTP, 100 μM UTP, 100 μM CTP, 50 mM Tris-HCl, pH 8.0, 100 mM KCl, 10 mM MgCl2, 1 mM DTT, 10 μg/ml bovine serum albumin, and 5.5% glycerol. Reaction components other than DNA and NTPs were pre-incubated for 10 mm at 37° C. Reactions were carried out by addition of DNA and incubation for 5 min at 37° C., followed by addition of NTPs and incubation for 60 min at 37° C. DNA was removed by addition of 1 μl 5 mM CaCl2 and 2 U DNaseI (Ambion, Inc.), followed by incubation for 90 min at 37° C. RNA was quantified by addition of 100 μl RiboGreen RNA Quantitation Reagent (Invitrogen, Inc.; 1:500 dilution in Tris-HCl, pH 8.0, 1 mM EDTA), followed by incubation for 10 min at 25° C., followed by measurement of fluorescence intensity [excitation wavelength=485 nm and emission wavelength=535 nm; QuantaMaster QMI spectrofluorometer (PTI, Inc.)]. IC50 was defined as the concentration of inhibitor resulting in 50% inhibition of RNA polymerase activity.

[2] = molecular target: M tuberculosis RNA polymerase core enzyme + M. tuberculosis σA (Mycobacterium tuberculosis, UniProt P9WGY7+P9WGY9); test: Fluorescence-detected assay of inhibition of Mycobacterium tuberculosis RNA polymerase; type: biochemical; conditions: read-out: IC50 Mt RNAP
Method: as §1
(§2) Fluorescence-detected RNA polymerase assays with M tuberculosis RNA polymerase were performed as in Example 17.1, using reaction mixtures containing (20 μl): 0-100 nM test compound, 75 nM M tuberculosis RNA polymerase core enzyme, 300 nM M. tuberculosis σ^A, 20 nM 384 by DNA fragment containing the bacteriophage T4 N25 promoter, 100 μM ATP, 100 μM GTP, 100 μM UTP, 100 μM CTP, 40 mM Tris-HCl, pH 8.0, 80 mM NaCl, 5 mM MgCl2, 2.5 mM DTT, and 12.7% glycerol. IC50 was defined as the concentration of inhibitor resulting in 50% inhibition of RNA polymerase activity.

[3] = molecular target: S. aureus RNA polymerase core enzyme + S. aureus σA (Staphylococcus aureus, UniProt P47768+Q2G0N5); test: Fluorescence-detected assay of inhibition of Staphylococcus aureus RNA polymerase; type: biochemical; conditions: read-out: IC50 Sa RNAP
Method: as §1
as §2, with “S. aureus” for “M tuberculosis”, “S. aureus” for “M. tuberculosis”

[4] = system: Bacillus anthracis Vollum 1B; test: microbe, parasite or virus in culture; type: cell-based; conditions: VOLLUM1B, read-out: MIC B. anthracis Vollum-1b
[5] = system: Francisella tularensis SCHU4; test: microbe, parasite or virus in culture; type: cell-based; conditions: SCHU4, read-out: MIC F. tularensis SCHU4
[6] = system: Burkholderia mallei CHN7; test: microbe, parasite or virus in culture; type: cell-based; conditions: CHN7, read-out: MIC B. mallei CHN7
[7] = system: Mycobacterium tuberculosis H37Rv; test: MIC, microplate Alamar Blue assay; conditions: read-out: MIC M. tuberculosis H37Rv
[8] = system: Staphylococcus aureus ATCC 12600; test: MIC, spiral gradient endpoint assay; conditions: ATCC12600, 16 h, read-out: MIC S. aureus 12600
[9] = system: Enterococcus faecalis ATCC 19433; test: MIC, spiral gradient endpoint assay; conditions: ATCC19433, 16 h, read-out: MIC E. faecalis 19433
[10] = system: Escherichia coli D21f2tolC; test: MIC, spiral gradient endpoint assay; conditions: 16 h, read-out: MIC E. coli D21f2tolC
[11] = system: Haemophilus influenzae ATCC 33391; test: MIC, spiral gradient endpoint assay (GC II agar, 5% CO2); conditions: ATCC33391, read-out: MIC H. influenzae 33391
[12] = system: H. influenzae 49247; test: as above; conditions: for MIC: Haemophilus influenzae, 49247, read-out: MIC H. influenzae 49247
[13] = system: Moraxella catarrhalis ATCC 25238; test: as above; conditions: ATCC25238, read-out: MIC M. catarrhalis 25238

O=C(CCc1ccccc1Cl)c1c(O)cc(O)cc1O [0MTK11, 3-(2-chlorophenyl)propanoyl-phloroglucinol]
IC50 [1]: 3500 nM
IC50 [2]: 2.5 µM
IC50 [3]: 11 µM
MIC [4]: 6.25 µg/mL (≈ 21.4 µM)
MIC [5]: 3.12 µg/mL (≈ 10.7 µM)
MIC [6]: 50 µg/mL (≈ 171 µM)
MIC [7]: > 50 µg/mL
MIC [8]: 16 µg/mL (≈ 54.7 µM)
MIC [9]: > 40 µg/mL
MIC [10]: 8 µg/mL (≈ 27.3 µM)
MIC [11]: > 40 µg/mL
MIC50 ([12]; Haemophilus influenzae, 49247, read-out: MIC50 H. influenzae 49247): 35 µg/mL (≈ 120 µM)
MIC [13]: > 40 µg/mL

O=C(CCc1cccc(Cl)c1)c1c(O)cc(O)cc1O [0MTK12, 3-(3-chlorophenyl)propanoyl-phloroglucinol]
IC50 [1]: 2600 nM
IC50 [2]: 4.8 µM
IC50 [3]: 9 µM
MIC [4]: 12.5 µg/mL (≈ 42.7 µM)
MIC [5]: 3.12 µg/mL (≈ 10.7 µM)
MIC [6]: 50 µg/mL (≈ 171 µM)
MIC [7]: 50 µg/mL (≈ 171 µM)
MIC [8]: 16 µg/mL (≈ 54.7 µM)
MIC [9]: 32 µg/mL (≈ 109 µM)
MIC [10]: 6 µg/mL (≈ 20.5 µM)
MIC [11]: > 40 µg/mL
MIC [12]: > 40 µg/mL
MIC [13]: > 40 µg/mL

O=C(CCc1ccc(Cl)cc1)c1c(O)cc(O)cc1O [0MTK13, 3-(4-chlorophenyl)propanoyl-phloroglucinol]
IC50 [1]: 1100 nM
IC50 [2]: 2.3 µM
IC50 [3]: 4.3 µM
MIC [4]: 6.25 µg/mL (≈ 21.4 µM)
MIC [5]: 3.12 µg/mL (≈ 10.7 µM)
MIC [6]: 12.5 µg/mL (≈ 42.7 µM)
MIC [7]: 25 µg/mL (≈ 85.4 µM)
MIC [8]: 4 µg/mL (≈ 13.7 µM)
MIC [9]: 11 µg/mL (≈ 37.6 µM)
MIC [10]: 2.7 µg/mL (≈ 9.22 µM)
MIC [11]: 32 µg/mL (≈ 109 µM)
MIC [12]: 32 µg/mL (≈ 109 µM)
MIC [13]: 32 µg/mL (≈ 109 µM)

CCc1ccc(CCC(=O)c2c(O)cc(O)cc2O)cc1 [0MTK26, 3-(4-ethylphenyl)propanoyl-phloroglucinol]
IC50 [1]: 1500 nM
IC50 [2]: 3.6 µM
IC50 [3]: 5.4 µM
MIC [8]: 12.5 µg/mL (≈ 43.7 µM)
MIC [9]: 36 µg/mL (≈ 126 µM)
MIC [10]: 6.2 µg/mL (≈ 21.7 µM)

CC(C)c1ccc(CCC(=O)c2c(O)cc(O)cc2O)cc1 [0MTK27, 3-(4-isopropylphenyl)propanoyl-phloroglucinol]
IC50 [1]: 2300 nM
IC50 [2]: 4.9 µM
IC50 [3]: 5.4 µM
MIC [8]: 9.8 µg/mL (≈ 32.6 µM)
MIC [9]: 16 µg/mL (≈ 53.3 µM)
MIC [10]: 4.3 µg/mL (≈ 14.3 µM)

CC(C)(C)c1ccc(CCC(=O)c2c(O)cc(O)cc2O)cc1 [0MTK28, 3-((4-tert-butyl)phenyl)propanoyl-phloroglucinol]
IC50 [1]: 2700 nM
IC50 [2]: 4.6 µM
IC50 [3]: 6.4 µM
MIC [8]: 6.9 µg/mL (≈ 21.9 µM)
MIC [9]: 11 µg/mL (≈ 35 µM)
MIC [10]: 3 µg/mL (≈ 9.54 µM)

Cc1cc(F)ccc1CCC(=O)c1c(O)cc(O)cc1O [0MTK30, 3-(4-fluoro-2-methylphenyl)propanoyl-phloroglucinol]
IC50 [1]: 1800 nM
IC50 [2]: 3.7 µM
IC50 [3]: 4.1 µM
MIC [8]: 16 µg/mL (≈ 55.1 µM)
MIC [9]: 26 µg/mL (≈ 89.6 µM)
MIC [10]: 7 µg/mL (≈ 24.1 µM)

O=C(CCc1ccccc1C(F)(F)F)c1c(O)cc(O)cc1O [0MTK31, 3-(2-(trifluoromethyl)phenyl)propanoyl-phloroglucinol]
IC50 [1]: 1900 nM
IC50 [2]: 3.5 µM
IC50 [3]: 4.8 µM
MIC [8]: 14 µg/mL (≈ 42.9 µM)
MIC [9]: 22 µg/mL (≈ 67.4 µM)
MIC [10]: 6 µg/mL (≈ 18.4 µM)

O=C(CCc1ccc(C(F)(F)F)cc1C(F)(F)F)c1c(O)cc(O)cc1O [0MTK32, 3-(2,4-bis(trifluoromethyl)phenyl)propanoyl-phloroglucinol]
IC50 [1]: 2000 nM
IC50 [2]: 3.3 µM
IC50 [3]: 3.7 µM
MIC [8]: 3.6 µg/mL (≈ 9.13 µM)
MIC [9]: 6.6 µg/mL (≈ 16.7 µM)
MIC [10]: 2.2 µg/mL (≈ 5.58 µM)

COc1ccccc1CCC(=O)c1c(O)cc(O)cc1O [OMTK14, 3-(2-methoxyphenyl)propanoyl-phloroglucinol]
IC50 [1]: 2700 nM
IC50 [2]: 9.9 µM
IC50 [3]: 7.2 µM
MIC [4]: 25 µg/mL (≈ 86.7 µM)
MIC [5]: 12.5 µg/mL (≈ 43.4 µM)
MIC [6]: > 50 µg/mL
MIC [7]: > 50 µg/mL
MIC [8]: > 40 µg/mL
MIC [9]: > 40 µg/mL
MIC [10]: 12 µg/mL (≈ 41.6 µM)
MIC [11]: > 40 µg/mL
MIC [12]: > 40 µg/mL
MIC [13]: > 40 µg/mL

COc1cccc(CCC(=O)c2c(O)cc(O)cc2O)c1 [OMTK15, 3-(3-methoxyphenyl)propanoyl-phloroglucinol]
IC50 [1]: 3000 nM
IC50 [2]: 3 µM
IC50 [3]: 7.2 µM
MIC [4]: 25 µg/mL (≈ 86.7 µM)
MIC [5]: 12.5 µg/mL (≈ 43.4 µM)
MIC [6]: > 50 µg/mL
MIC [7]: 50 µg/mL (≈ 173 µM)
MIC [8]: > 40 µg/mL
MIC [9]: > 40 µg/mL
MIC [10]: 12 µg/mL (≈ 41.6 µM)
MIC [11]: > 40 µg/mL
MIC [12]: > 40 µg/mL
MIC [13]: > 40 µg/mL

Cc1ccccc1CCC(=O)c1c(O)cc(O)cc1O [OMTK18, 3-(2-methylphenyl)propanoyl-phloroglucinol]
IC50 [1]: 2700 nM
IC50 [2]: 3.9 µM
IC50 [3]: 7.9 µM
MIC [8]: > 40 µg/mL
MIC [9]: > 40 µg/mL
MIC [10]: 11 µg/mL (≈ 40.4 µM)

O=C(CCc1ccc(F)cc1)c1c(O)cc(O)cc1O [OMTK21, 3-(4-fluorophenyl)propanoyl-phloroglucinol]
IC50 [1]: 2400 nM
IC50 [2]: 4.4 µM
IC50 [3]: 7.2 µM
MIC [8]: > 40 µg/mL
MIC [9]: > 40 µg/mL
MIC [10]: 10 µg/mL (≈ 36.2 µM)

O=C(CCc1ccc(Br)cc1)c1c(O)cc(O)cc1O [OMTK22, 3-(4-bromophenyl)propanoyl-phloroglucinol]
IC50 [1]: 1300 nM
IC50 [2]: 1.7 µM
IC50 [3]: 3.7 µM
MIC [8]: 10 µg/mL (≈ 29.7 µM)
MIC [9]: 22 µg/mL (≈ 65.2 µM)
MIC [10]: 5 µg/mL (≈ 14.8 µM)

O=C(CCc1ccc(C(F)(F)F)cc1)c1c(O)cc(O)cc1O [OMTK23, 3-(4-trifluoromethylphenyl)propanoyl-phloroglucinol]
IC50 [1]: 1600 nM
IC50 [2]: 2.3 µM
IC50 [3]: 4.8 µM
MIC [8]: 12 µg/mL (≈ 36.8 µM)
MIC [9]: 25 µg/mL (≈ 76.6 µM)
MIC [10]: 5 µg/mL (≈ 15.3 µM)
